Assay results as given in patent US8415469B2, “Compounds and methods for kinase modulation, and indications therefor” (Plexxikon Inc., priority 2005, dated 2013).

Legend:
Assay type in all cases: biochemical
[1] = molecular target: T1, B-Raf V600E (Homo sapiens, UniProt P15056, V600E); assay: AlphaScreen kinase assay, B-Raf V600E; details: read-out: IC50, activity toward kinase B-Raf V600E
T1 construct: P4254. pFastBacBD-CDC37 BRAF D437-K722-X, V600E; His6 with pFastBac HT leader (TEV site) (N); made in house; host or cells: Sf9 (baculovirus; chaperone CDC37 co-expressed)
T1 sequence (P15056 with tags, fused parts or gaps V600E): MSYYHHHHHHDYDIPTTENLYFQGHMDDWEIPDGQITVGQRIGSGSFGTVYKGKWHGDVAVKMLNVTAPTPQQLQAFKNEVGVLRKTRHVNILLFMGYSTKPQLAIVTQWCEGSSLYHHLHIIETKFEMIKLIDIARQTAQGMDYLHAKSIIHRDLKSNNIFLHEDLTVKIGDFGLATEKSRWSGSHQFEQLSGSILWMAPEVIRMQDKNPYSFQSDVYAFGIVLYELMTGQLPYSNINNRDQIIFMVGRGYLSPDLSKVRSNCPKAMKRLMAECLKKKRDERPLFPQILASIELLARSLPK

[2] = molecular target: T2, FGFR1 (Homo sapiens, UniProt P11362, C488A/C584S); assay: AlphaScreen kinase assay, FGFR1; details: read-out: IC50, activity toward kinase FGFR
T2 construct: P1351.pET N6 BI-PTP FGFR A458-E765-X C488A, C584S; made in house; host or cells: E. coli (PTP1B co-expressed)
T2 sequence (P11362 458-765 C488A/C584S): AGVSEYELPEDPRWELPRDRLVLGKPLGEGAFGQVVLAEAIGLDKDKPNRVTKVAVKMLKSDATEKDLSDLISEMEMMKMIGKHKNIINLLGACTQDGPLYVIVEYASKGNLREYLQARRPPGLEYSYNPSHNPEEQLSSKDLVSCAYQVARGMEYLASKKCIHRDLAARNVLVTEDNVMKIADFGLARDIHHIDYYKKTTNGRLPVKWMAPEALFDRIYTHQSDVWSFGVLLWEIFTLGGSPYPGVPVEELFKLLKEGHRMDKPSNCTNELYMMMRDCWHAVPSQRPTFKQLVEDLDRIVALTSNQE

[3] = molecular target: T3, Flt1 (Homo sapiens, UniProt P17948); assay: AlphaScreen kinase assay, Flt1; details: read-out: IC50, activity toward kinase Flt1
T3 construct: P1826.pETN6 BI-PTP FLT1 M799-D1165-X WT; His6 (N); made in house; host or cells: E. coli (PTP1B co-expressed)
T3 sequence (P17948 with tags, fused parts or gaps): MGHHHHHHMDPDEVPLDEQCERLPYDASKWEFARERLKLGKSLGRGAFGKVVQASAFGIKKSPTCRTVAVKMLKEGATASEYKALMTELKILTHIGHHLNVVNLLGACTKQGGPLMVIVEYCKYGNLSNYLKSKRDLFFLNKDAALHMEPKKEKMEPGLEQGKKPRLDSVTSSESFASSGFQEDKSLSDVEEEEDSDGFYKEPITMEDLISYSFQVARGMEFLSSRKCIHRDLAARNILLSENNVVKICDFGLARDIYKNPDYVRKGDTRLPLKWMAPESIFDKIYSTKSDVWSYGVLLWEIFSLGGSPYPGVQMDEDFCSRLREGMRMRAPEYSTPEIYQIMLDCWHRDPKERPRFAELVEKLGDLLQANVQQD

[4] = molecular target: T4, Fms (Homo sapiens, UniProt P07333); assay: AlphaScreen kinase assay, Fms; details: read-out: IC50, activity toward kinase Fms
T4 construct: purchased Upstate Biotechnology
T4 sequence (P07333 20-972): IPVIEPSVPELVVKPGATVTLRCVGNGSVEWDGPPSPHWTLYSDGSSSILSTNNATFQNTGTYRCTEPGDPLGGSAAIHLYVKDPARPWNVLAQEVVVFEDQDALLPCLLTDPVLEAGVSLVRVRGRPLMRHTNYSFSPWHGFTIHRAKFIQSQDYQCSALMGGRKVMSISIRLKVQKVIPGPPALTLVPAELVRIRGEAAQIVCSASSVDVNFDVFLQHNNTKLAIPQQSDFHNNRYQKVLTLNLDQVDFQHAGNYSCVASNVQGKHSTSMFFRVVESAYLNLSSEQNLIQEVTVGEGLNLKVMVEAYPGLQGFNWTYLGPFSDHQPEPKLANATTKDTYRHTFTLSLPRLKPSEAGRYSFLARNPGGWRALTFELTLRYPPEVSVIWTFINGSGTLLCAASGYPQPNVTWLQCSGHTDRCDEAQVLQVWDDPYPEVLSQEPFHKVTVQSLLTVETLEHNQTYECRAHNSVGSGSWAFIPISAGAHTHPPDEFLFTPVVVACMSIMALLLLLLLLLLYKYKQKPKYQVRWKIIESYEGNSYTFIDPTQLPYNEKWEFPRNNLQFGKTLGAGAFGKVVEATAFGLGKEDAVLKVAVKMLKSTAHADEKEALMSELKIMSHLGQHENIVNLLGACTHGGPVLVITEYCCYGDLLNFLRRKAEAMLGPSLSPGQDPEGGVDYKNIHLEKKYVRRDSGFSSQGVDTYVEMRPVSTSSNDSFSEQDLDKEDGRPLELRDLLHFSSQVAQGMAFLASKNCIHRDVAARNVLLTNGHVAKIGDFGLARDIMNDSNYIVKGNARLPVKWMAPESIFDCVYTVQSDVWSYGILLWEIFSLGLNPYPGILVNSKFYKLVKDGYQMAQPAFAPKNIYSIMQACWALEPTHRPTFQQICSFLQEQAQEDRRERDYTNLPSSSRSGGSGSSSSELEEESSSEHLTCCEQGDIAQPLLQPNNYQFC

[5] = molecular target: T5, Src (Homo sapiens, UniProt P12931); assay: AlphaScreen kinase assay, Src; details: read-out: IC50, activity toward kinase Src
T5 construct: P1144. pET-N6 BI-PTP SRC V86-L536-X; made in house
T5 sequence (P12931 with tags, fused parts or gaps): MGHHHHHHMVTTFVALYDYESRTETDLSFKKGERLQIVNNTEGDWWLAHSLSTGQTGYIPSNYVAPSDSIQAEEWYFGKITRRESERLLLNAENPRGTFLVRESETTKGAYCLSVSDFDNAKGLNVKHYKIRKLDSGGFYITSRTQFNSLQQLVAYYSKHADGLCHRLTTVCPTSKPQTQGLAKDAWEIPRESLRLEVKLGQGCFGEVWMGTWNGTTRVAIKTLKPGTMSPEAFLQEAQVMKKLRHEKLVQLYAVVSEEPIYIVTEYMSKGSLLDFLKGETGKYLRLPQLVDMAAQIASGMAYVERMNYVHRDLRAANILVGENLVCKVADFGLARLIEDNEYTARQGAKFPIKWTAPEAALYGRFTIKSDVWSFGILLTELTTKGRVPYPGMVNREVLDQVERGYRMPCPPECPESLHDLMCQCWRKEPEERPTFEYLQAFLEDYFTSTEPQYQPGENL

[6] = molecular target: T6, Kit (Homo sapiens, UniProt P10721); assay: AlphaScreen kinase assay, Kit; details: read-out: IC50, activity toward kinase Kit
T6 construct: P1332.N6 BI PTP KIT M552-K948-X COD; His6 (N); made in house; host or cells: E. coli (PTP1B co-expressed)
T6 sequence (P10721 with tags, fused parts or gaps): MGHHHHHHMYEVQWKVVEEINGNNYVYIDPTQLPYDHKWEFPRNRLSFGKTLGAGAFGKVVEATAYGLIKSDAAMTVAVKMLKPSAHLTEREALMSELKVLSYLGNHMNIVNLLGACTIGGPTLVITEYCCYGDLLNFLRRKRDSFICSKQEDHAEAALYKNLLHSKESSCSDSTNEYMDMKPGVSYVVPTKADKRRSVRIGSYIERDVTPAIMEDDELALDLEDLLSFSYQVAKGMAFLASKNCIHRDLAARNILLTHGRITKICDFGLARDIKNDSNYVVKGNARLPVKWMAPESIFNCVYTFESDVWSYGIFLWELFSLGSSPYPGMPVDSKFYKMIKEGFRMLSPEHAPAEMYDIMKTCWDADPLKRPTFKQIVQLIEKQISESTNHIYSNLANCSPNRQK

[7] = molecular target: T7, Ret (Homo sapiens, UniProt P07949); assay: AlphaScreen kinase assay, Ret; details: read-out: IC50, activity toward kinase Ret
T7 construct: P1378.pET-SF BI-PTP RET H661-R1012 HIS; made in house
T7 sequence (P07949 with tags, fused parts or gaps): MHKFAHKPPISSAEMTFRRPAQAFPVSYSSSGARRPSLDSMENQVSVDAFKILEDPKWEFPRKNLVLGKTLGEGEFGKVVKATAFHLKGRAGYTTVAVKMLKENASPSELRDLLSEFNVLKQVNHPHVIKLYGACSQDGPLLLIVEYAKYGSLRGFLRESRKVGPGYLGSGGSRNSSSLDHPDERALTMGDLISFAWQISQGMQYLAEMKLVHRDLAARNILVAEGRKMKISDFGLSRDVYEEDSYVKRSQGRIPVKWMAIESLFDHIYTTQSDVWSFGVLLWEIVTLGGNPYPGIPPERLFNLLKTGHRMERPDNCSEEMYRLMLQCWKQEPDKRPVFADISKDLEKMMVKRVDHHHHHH

[8] = molecular target: T8, Jnk1 (Homo sapiens, UniProt P45983); assay: AlphaScreen kinase assay, Jnk1; details: read-out: IC50, activity toward kinase Jnk1
T8 construct: purchased Upstate Biotechnology
T8 sequence (P45983 whole entry): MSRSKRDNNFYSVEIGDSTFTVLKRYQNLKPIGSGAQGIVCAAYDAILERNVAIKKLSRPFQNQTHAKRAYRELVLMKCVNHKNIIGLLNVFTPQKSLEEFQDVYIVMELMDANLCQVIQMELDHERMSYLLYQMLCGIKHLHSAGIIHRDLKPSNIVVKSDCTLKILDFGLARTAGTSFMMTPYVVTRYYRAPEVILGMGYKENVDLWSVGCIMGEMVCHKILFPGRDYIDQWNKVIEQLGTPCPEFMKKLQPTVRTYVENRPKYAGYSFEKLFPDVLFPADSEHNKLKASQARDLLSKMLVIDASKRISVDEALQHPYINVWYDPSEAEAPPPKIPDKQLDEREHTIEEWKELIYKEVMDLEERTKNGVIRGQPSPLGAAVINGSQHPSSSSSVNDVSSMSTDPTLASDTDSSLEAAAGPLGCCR

[9] = molecular target: T9, Jnk3 (Homo sapiens, UniProt P53779); assay: AlphaScreen kinase assay, Jnk3; details: read-out: IC50, activity toward kinase Jnk3
T9 construct: purchased Upstate Biotechnology
T9 sequence (P53779 whole entry): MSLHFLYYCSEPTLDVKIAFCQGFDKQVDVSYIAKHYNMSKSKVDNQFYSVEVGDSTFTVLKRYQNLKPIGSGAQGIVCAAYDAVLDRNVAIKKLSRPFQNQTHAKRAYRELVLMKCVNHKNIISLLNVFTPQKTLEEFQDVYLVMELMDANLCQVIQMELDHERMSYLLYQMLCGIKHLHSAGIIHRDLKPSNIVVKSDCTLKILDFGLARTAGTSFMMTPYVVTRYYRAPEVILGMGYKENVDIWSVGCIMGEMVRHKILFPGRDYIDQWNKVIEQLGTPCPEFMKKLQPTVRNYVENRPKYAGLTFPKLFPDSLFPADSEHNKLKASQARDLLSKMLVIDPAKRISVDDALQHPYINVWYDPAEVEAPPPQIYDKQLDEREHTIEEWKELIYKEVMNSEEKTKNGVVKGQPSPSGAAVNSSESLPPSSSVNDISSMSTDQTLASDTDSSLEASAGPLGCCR

[10] = molecular target: T10, B-Raf (Homo sapiens, UniProt P15056); assay: AlphaScreen kinase assay, B-Raf; details: read-out: IC50, activity toward kinase B-Raf
T10 construct: purchased Upstate Biotechnology
T10 sequence (P15056 whole entry): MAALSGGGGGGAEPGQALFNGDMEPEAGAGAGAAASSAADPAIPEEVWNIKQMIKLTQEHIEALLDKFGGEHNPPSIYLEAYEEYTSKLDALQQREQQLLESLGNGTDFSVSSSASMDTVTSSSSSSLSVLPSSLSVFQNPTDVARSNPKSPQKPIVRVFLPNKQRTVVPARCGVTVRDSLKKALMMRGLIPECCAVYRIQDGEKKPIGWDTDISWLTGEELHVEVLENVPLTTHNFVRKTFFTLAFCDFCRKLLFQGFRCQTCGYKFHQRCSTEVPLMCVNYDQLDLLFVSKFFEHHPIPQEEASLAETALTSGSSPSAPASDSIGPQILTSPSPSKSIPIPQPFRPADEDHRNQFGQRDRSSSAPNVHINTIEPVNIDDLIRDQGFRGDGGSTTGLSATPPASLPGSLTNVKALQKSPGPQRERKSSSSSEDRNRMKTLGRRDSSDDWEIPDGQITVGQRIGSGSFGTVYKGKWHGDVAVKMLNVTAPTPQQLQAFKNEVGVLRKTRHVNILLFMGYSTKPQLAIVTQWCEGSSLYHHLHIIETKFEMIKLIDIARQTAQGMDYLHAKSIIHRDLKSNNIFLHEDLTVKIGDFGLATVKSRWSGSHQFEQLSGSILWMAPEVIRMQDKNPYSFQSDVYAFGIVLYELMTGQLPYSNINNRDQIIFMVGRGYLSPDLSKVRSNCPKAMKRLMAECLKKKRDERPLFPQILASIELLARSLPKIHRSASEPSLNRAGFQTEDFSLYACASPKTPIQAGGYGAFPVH

[11] = molecular target: T11, c-Raf-1 (Homo sapiens, UniProt P04049); assay: AlphaScreen kinase assay, c-Raf-1; details: read-out: IC50, activity toward kinase c-Raf-1
T11 construct: purchased Upstate Biotechnology
T11 sequence (P04049 whole entry): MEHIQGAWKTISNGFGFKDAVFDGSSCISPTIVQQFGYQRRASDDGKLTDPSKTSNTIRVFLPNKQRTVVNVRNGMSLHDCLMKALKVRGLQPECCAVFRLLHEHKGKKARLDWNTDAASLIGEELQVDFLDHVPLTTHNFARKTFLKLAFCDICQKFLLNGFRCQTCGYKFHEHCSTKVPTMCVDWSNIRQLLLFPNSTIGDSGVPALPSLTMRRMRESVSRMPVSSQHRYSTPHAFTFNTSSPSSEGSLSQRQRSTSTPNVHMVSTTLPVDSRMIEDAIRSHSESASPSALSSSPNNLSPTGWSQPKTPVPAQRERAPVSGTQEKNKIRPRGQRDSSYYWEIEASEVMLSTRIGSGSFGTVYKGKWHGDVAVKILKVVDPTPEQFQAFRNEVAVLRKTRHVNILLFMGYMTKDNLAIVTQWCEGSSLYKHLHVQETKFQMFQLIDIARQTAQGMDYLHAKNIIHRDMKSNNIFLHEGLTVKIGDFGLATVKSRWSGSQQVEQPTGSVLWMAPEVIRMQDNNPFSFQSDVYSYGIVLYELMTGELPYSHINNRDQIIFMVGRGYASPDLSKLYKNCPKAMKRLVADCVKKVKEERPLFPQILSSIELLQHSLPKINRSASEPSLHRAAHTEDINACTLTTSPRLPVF

SMILES | IC50 [1] [µM] | IC50 [2] [µM] | IC50 [3] [µM] | IC50 [4] [µM] | IC50 [5] [µM] | IC50 [6] [µM] | IC50 [7] [µM] | IC50 [8] [µM] | IC50 [9] [µM] | IC50 [10] [µM] | IC50 [11] [µM]
COc1ccnc2[nH]cc(Cc3ccc(NCc4ccc(Cl)cc4)nc3)c12 [Compound P-0373] | ≤ 10 | ≤ 10 | ≤ 10 | ≤ 10 | ≤ 10 |  |  |  |  |  | 
Clc1ccc(CNc2ccc(Cc3c[nH]c4nccc(Cl)c34)cn2)cc1 [Compound P-0515] | ≤ 10 | ≤ 10 | ≤ 10 | ≤ 10 | ≤ 10 |  |  |  |  |  | 
COc1ccc(C(=O)c2c[nH]c3ncc(Br)cc23)c(Cl)c1 [Compound P-0647] | ≤ 10 | ≤ 10 |  |  | ≤ 10 | ≤ 10 | ≤ 10 |  |  |  | 
CCCS(=O)(=O)Nc1ccc(F)c(Cc2c[nH]c3ncc(NCCN4CCN(C)CC4)cc23)c1F [Compound P-1345] | ≤ 10 | ≤ 10 |  |  | ≤ 10 |  |  |  |  |  | 
O=[N+]([O-])c1cccc(C(O)c2c[nH]c3ncc(-c4cccnc4)cc23)c1 (centres unmarked) [Compound P-1399, (3-nitro-phenyl)-(5-pyridin-3-yl-1H-pyrrolo[2,3-b]pyridin-3-yl)-methanol] | ≤ 10 | ≤ 10 |  | ≤ 10 | ≤ 10 | ≤ 10 |  |  |  |  | 
O=C(O)/C=C/c1cccc(-c2cnc3[nH]cc(C(=O)c4cccc(C(F)(F)F)c4)c3c2)c1 [Compound P-1416, (E)-3-{3-[3-(3-Trifluoromethyl-benzoyl)-1H-pyrrolo[2,3-b]pyridin-5-yl]-phenyl}-acrylic acid] | ≤ 10 | ≤ 10 | ≤ 10 | ≤ 10 | ≤ 10 | ≤ 10 |  |  |  |  | 
O=C(O)COc1ccc(F)c(Cc2c[nH]c3ncc(-c4cccnc4)cc23)c1F [Compound P-1468, [2,4-difluoro-3-(5-pyridin-3-yl-1H-pyrrolo[2,3-b]pyridin-3-ylmethyl)-phenoxy]-acetic acid] |  | ≤ 10 | ≤ 10 | ≤ 10 |  | ≤ 10 |  | ≤ 10 | ≤ 10 |  | 
O=C(COc1ccc(F)c(Cc2c[nH]c3ncc(-c4cccnc4)cc23)c1F)NCc1ccccc1 [Compound P-1469, N-Benzyl-2-[2,4-difluoro-3-(5-pyridin-3-yl-1H-pyrrolo[2,3-b]pyridin-3-ylmethyl)-phenoxy]-acetamide] | ≤ 10 | ≤ 10 | ≤ 10 | ≤ 10 | ≤ 10 | ≤ 10 |  |  |  | ≤ 10 | 
COCCOc1ccc(F)c(C(=O)c2c[nH]c3ncc(-c4cccc(NS(C)(=O)=O)c4)cc23)c1F [Compound P-1472, N-(3-{3-[2,6-Difluoro-3-(2-methoxy-ethoxy)-benzoyl]-1H-yrrolo[2,3-b]pyridin-5-yl}-phenyl)-methanesulfonamide] | ≤ 10 | ≤ 10 | ≤ 10 | ≤ 10 | ≤ 10 | ≤ 10 |  |  |  | ≤ 10 | 
O=C(c1c(Cl)cccc1Cl)c1c[nH]c2ncccc12 [Compound P-1476] |  | ≤ 10 |  | ≤ 10 | ≤ 10 | ≤ 10 |  |  |  |  | 
Cc1cccc(C)c1C(=O)c1c[nH]c2ncccc12 [Compound P-1484] |  |  |  |  | ≤ 10 | ≤ 10 |  |  |  |  | 
c1ccc(Oc2cccc(Nc3c[nH]c4ncccc34)c2)cc1 [Compound P-1496, (3-Phenoxy-phenyl)-(1H-pyrrolo[2,3-b]pyridin-3-yl)-amine] |  |  |  | ≤ 10 | ≤ 10 |  |  |  |  |  | 
COc1cccc(N(C)c2c[nH]c3ncccc23)c1 [Compound P-1506, (3-Methoxy-phenyl)-methyl-(1H-pyrrolo[2,3-b]pyridin-3-yl)-amine] | ≤ 10 |  |  | ≤ 10 | ≤ 10 | ≤ 10 |  |  |  |  | 
CS(=O)(=O)Nc1cccc(-c2cnc3[nH]cc(Cc4ccc5c(c4)OCCO5)c3c2)c1 [Compound P-1530, N-{3-[3-(2,3-Dihydro-benzo[1,4]dioxin-6-ylmethyl)-1H-pyrrolo[2,3-b]pyridin-5-yl]-phenyl}-methanesulfonamide] | ≤ 10 | ≤ 10 | ≤ 10 | ≤ 10 | ≤ 10 | ≤ 10 |  |  |  |  | 
CCCCNC(=O)Nc1ccc(F)c(C(=O)c2c[nH]c3ncc(-c4cccnc4)cc23)c1 [Compound P-1534, 1-Butyl-3-[4-fluoro-3-(5-pyridin-3-yl-1H-pyrrolo[2,3-b]pyridine-3-carbonyl)-phenyl]-urea] | ≤ 10 | ≤ 10 | ≤ 10 | ≤ 10 |  | ≤ 10 |  | ≤ 10 | ≤ 10 | ≤ 10 | 
CCCS(=O)(=O)Nc1ccc(F)c(C(=O)c2c[nH]c3ncc(-c4ccc(C(N)=O)cc4)cc23)c1F [Compound P-1546, 4-{3-[2,6-Difluoro-3-(propane-1-sulfonylamino)-benzoyl]-1H-pyrrolo[2,3-b]pyridin-5-yl}-benzamide] | ≤ 10 | ≤ 10 | ≤ 10 | ≤ 10 |  | ≤ 10 |  | ≤ 10 | ≤ 10 | ≤ 10 | ≤ 10

Results, then the compound that gave them:

IC50 [1] [µM] | IC50 [2] [µM] | IC50 [3] [µM] | IC50 [4] [µM] | IC50 [5] [µM] | IC50 [6] [µM] | IC50 [7] [µM] | IC50 [8] [µM] | IC50 [9] [µM] | IC50 [10] [µM] | IC50 [11] [µM] | SMILES
≤ 10 | ≤ 10 | ≤ 10 |  |  |  |  | ≤ 10 | ≤ 10 | ≤ 10 |  | Nc1ccc(F)c(C(=O)c2c[nH]c3ncc(-c4ccccc4)cc23)c1 [Compound P-1577]
≤ 10 | ≤ 10 | ≤ 10 |  |  |  |  | ≤ 10 | ≤ 10 | ≤ 10 |  | O=C(O)/C=C/c1cccc(-c2cnc3[nH]cc(C(=O)c4ccc(Cl)cc4Cl)c3c2)c1 [Compound P-1585]
≤ 10 | ≤ 10 | ≤ 10 |  |  |  |  | ≤ 10 | ≤ 10 | ≤ 10 |  | NC(=O)c1cccc(-c2cnc3[nH]cc(C(=O)c4cccc(N)c4)c3c2)c1 [Compound P-1592]
≤ 10 | ≤ 10 | ≤ 10 | ≤ 10 |  |  |  | ≤ 10 | ≤ 10 | ≤ 10 |  | CCCS(=O)(=O)Nc1cccc(C(=O)c2c[nH]c3ncc(-c4ccccc4)cc23)c1C [Compound P-1610]
 |  | ≤ 10 | ≤ 10 |  |  |  | ≤ 10 | ≤ 10 |  |  | O=C(c1c[nH]c2ncc(-c3ccc(Cl)cc3)cc12)c1cccc2c1ccn2C(=O)NCc1ccccc1 [Compound P-1618, 4-[5-(4-Chloro-phenyl)-1H-pyrrolo[2,3-b]pyridine-3-carbonyl]-indole-1-carboxylic acid benzylamide]
≤ 10 |  |  | ≤ 10 |  | ≤ 10 |  | ≤ 10 | ≤ 10 | ≤ 10 |  | O=C(Nc1cccc(C(=O)c2c[nH]c3ncccc23)c1)Nc1ccc(F)c(F)c1 [Compound P-1706, 1-(3,4-Difluoro-phenyl)-3-[3-(1H-pyrrolo[2,3-b]pyridine-3-carbonyl)-phenyl]-urea]
≤ 10 |  |  | ≤ 10 |  | ≤ 10 |  | ≤ 10 | ≤ 10 | ≤ 10 |  | COc1cccc(NC(=O)Nc2cccc(C(=O)c3c[nH]c4ncccc34)c2)c1 [Compound P-1707, 1-(3-Methoxy-phenyl)-3-[3-(1H-pyrrolo[2,3-b]pyridine-3-carbonyl)-phenyl]-urea]
